According to patent US20130338092A1, “COMPOUNDS AND METHODS FOR TARGETING LEUKEMIC STEM CELLS” (The Broad Institute, Inc., priority 2011, published 2013):
“Also recorded” adds a separate entry of the source.

Legend:
[1] = tested on: leukemic cobblestoning on pretreated OP9 stromal cells; experiment: Stromal pretreatment screen on OP9 stroma; type: cell-based, murine; details: compound on OP9 stroma for 3 days, washed before LSC plating
Protocol: OP9 cells were plated as in the primary screen. 24 hours later compounds were added to the stromal cultures and the plates were incubated for three days. […] As before, the plates were imaged after 6 days of coculture, and the level of cobblestoning was quantified. Any inhibition of cobblestoning observed under these modified assay conditions would presumably be due to the activity of the compound on the niche, and would allow the analysis of cell non-cell-autonomous mechanisms of leukemia growth inhibition.

HSPCs = experiment: Stromal pretreatment of primary MSC stroma, triple coculture, HSPCs; type: cell-based, murine; details: stroma pretreated three days, LSCs and HSPCs comingled
Protocol: (§1) In the context of primary MSC stroma (uncolored), both HSPCs (from actin-GFP mice (000329, Jackson Lab)) and LSC (dsRed+) populations were comingled together in a ratio of 2:1 within the same 384format wells. As in the stromal pretreatment screen with OP9 stroma, BRD7116 was added for three days to the stroma prior to the addition of the hematopoietic populations. 5 days after compound addition, wells were imaged in the red and green channels and total cells were counted using MetaXpress software from MDC.
(§2) This experiment was also performed in the context of primary MSC stroma. Both HSPCs and LSC populations were comingled together in the same wells, as a “triple” coculture.

LSC (dsRed+) = experiment: Stromal pretreatment of primary MSC stroma, triple coculture, leukemia cells; type: cell-based, murine; details: stroma pretreated three days, LSCs and HSPCs comingled
Protocol: as §1, §2

CD45.1+ HSPCs = tested on: CD45.1+ HSPCs; set-up: species or system mice; details: mouse, in vivo
Protocol: Heterotypic cocultures containing dsRed+ LSCs, CD45.1+ HSPCs, and GFP+ MSCs were exposed to compounds for 48 hours, then transplanted en masse post trypsinization with untreated wild-type helper splenocytes (CD45.1+CD45.2+) into lethally irradiated, wildtype recipient animals (CD45.2+). Latency of leukemia onset was compared for mice receiving cocultures treated with compound compared to DMSO control treated cocultures. The engraftment of the normal HSPCs treated and injected along with the leukemia cells was quantified by FACs analysis of the bone marrow of mice alive at the 16 week endpoint across treatments.
As in vivo readouts may better reflect hematopoietic stem cell function compared to in vitro readouts (Purton, L. E., and Scadden, D. T. (2007). Cell Stem Cell 1, 263-270.; Bock, T. A. (1997). Stem Cells 15 Suppl 1, 185-195.), our results were confirmed using murine transplantation studies. […] Compounds that increase disease latency relative to DMSO control are considered active. […] Bone marrow repopulating ability is a functional measure of normal HSPCs, assessed by quantifying long-term engraftment and differentiation patterns in recipient mice (Bock, T. A. (1997). Stem Cells 15 Suppl 1, 185-195.; Nguyen, L. V., Vanner, R., Dirks, P., and Eaves, C. J. (2012). Nat Rev Cancer 12, 133-143.). […]

OP9 stromal monolayers = experiment: Stromal viability in pulse treatment experiment (CellTiter-Glo); type: cell-based, murine; details: compared to DMSO control
Protocol: OP9 or MSCs were plated in white, 384 well plates (3570, Corning) and 24 hours later compounds were added in 8-point dose as described. Three days later the plates were put out to cool to room temperature, the cultures were aspirated, and 50 μl of CellTiterGlo reagent (G7570, Promega) diluted 1:3 in PBS was added to each well. The plates were covered and placed on an orbital shaker for 20 minutes then analyzed using either an LJL Analyst (LJL) or Envision (Perkin Elmer).
(§3) 13,500 GFP+ OP9 cells were plated onto gelatin coated, 96 well black, clear bottom plates (3904, Corning). 24 hours later, 2,000 sorted leukemia cells were plated onto the monolayer. Compounds (5 μM) were added either 1 (early pulse) or 4 (late pulse) days later at the same 5 μM working concentration of main coculture screen. In both cases, compounds were removed after 24 hours of treatment, the wells were washed, and fresh media without compound was added. The plates were imaged and analyzed 6 days after leukemia cell plating. The viability of the stroma was assessed using stromal monolayers grown alone and treated in parallel, with the same readout described in the stromal toxicity screen above.

[2] = tested on: leukemia cells on OP9 cells; experiment: Coculture pulse treatment experiment; type: cell-based, murine; details: 24 hours at Day 1 or Day 4 post LSC plating
Protocol: as §3

Row | Compound | leukemic cobblestoning after stromal pretreatment [1] | numbers of comingled HSPCs on pretreated MSC stroma (HSPCs) | leukemia cells on pretreated MSC stroma (LSC (dsRed+)) | differentiation patterns of engrafted HSPCs (CD45.1+ HSPCs) | stromal viability after 24 hour pulse (CellTiter-Glo) (OP9 stromal monolayers) | leukemia cells at Day 6 endpoint after 24 hour pulse [2] | leukemia cells at Day 6 endpoint after 24 hour pulse ([2]; listed as lovastatin)
1 | CC1(C)C(C(=O)Nc2ccc(S(=O)(=O)c3ccc(NC(=O)C4C(C)(C)C4(C)C)cc3)cc2)C1(C)C [BRD7116] | decreased leukemic cobblestoning; also recorded: partially recapitulated the leukemia cobblestone inhibition | a decrease in the numbers of comingled HSPCs was not observed | selective inhibition of the leukemia cells; also recorded: an inhibition of the leukemia cells was observed | – | – | – | –
2 | CCC(C)C(=O)OC1CC(C)C=C2C=CC(C)C(CCC(O)CC(O)CC(=O)O)C21 (stereo not shown) [Lovastatic acid] | – | – | – | normal differentiation patterns | no effect on stromal viability | strong inhibition of leukemia cells | near-complete loss of leukemia cells
